Laboratory results from patent publication US9480627B2, “Long term bacteriostatic compounds and their use in restorative dental materials” (priority 2010, dated 2016).

Assay: Storage stability in sealed container in 37 C oven for nine months
Conditions: nine month storage period
Text: These ingredients were blended together until homogenous and were allowed to remain in a sealed container in a 37 C oven for nine months.

Substance: Zinc pyrithione
- stability with acrylic dental adhesives (premature cure on storage): does not cure
